{
  "source": "paper PMC10212513",
  "about": "“Site IQ in mitochondrial complex I generates S1QEL-sensitive superoxide/hydrogen peroxide in both the reverse and forward reactions” (Biochemical Journal, 2023)",
  "key": {"[1]": {"tested_on": "site IQf in complex I", "assay": "Amplex UltraRed assay of superoxide/hydrogen peroxide production during forward electron transport (glycerol 3-phosphate plus 50 µM glutamate plus malate)", "type": "biochemical, rat", "protocol": "Cuvette- and plate-based assays of superoxide/hydrogen peroxide production during RET using 12.5 mM G3P (or during FET using 12.5 mM G3P, 50 µM glutamate plus 50 µM malate) as substrate were conducted at 37°C as described [45] using 0.2 mg of mitochondrial protein/ml in 3 ml (plastic cuvettes, Varian Cary Eclipse spectrofluorometer (Ex 560 nm/Em 590 nm)) or 0.2 mg mitochondrial protein/ml, 0.01 mg/well (Pherastar FS (BMG) fluorescence microplate reader, Ex 540 nm/Em 590 nm), in KHEB medium (120 mM KCl, 3 mM HEPES, 1 mM EGTA, 0.3% w/v bovine serum albumin, pH 7.4) containing 25 U/ml SOD1, 25 µM Amplex Ultrared, and 5 U/ml HRP, plus dimethyl sulfoxide (DMSO) or treatments as indicated."}, "[2]": {"tested_on": "Fa2N-4 cells", "assay": "NAD(P)H autofluorescence two-photon imaging, single-cell analysis", "type": "cell-based", "experimental": "Subcellular resolution micrographs of NAD(P)H autofluorescence were recorded using an upright Zeiss LSM 7MP multiphoton microscope, equipped with a Chameleon Vision II mode-locked laser set to 710 nm (1–1.5% of the 745 mW output power was used) and W Plan-Apochromat 20×/1.0 DIC M27 75 mm dipping water immersion objective lens and detection of emission between 420 and 480 nm. 1024 × 1024 pixels images (0.2 µm/pixel) were recorded at maximal scan speed and 8× frame averaging. Time courses of two frames, one before and one after the addition of rotenone (2 µM), FCCP (4 µM) or vehicle (DMSO 1 : 2000) were recorded using the Zeiss Multi Time Series macro. The cell monolayer was auto-focused at one x,y-position, and four other positions were imaged for analysis in each dish. Recordings were analysed in Image Analyst by rigid image registration, background subtraction and ROI-based intensity measurement. Unbiased single-cell ROIs were generated in using Cellpose 2.0 [48] with the ‘cyto2' neural network. Histograms were generated in Mathematica."}, "[3]": {"tested_on": "Fa2N-4 cells", "assay": "Subcellular analysis of NAD(P)H autofluorescence (mitochondria within cells)", "type": "cell-based", "conditions": "rotenone challenge", "experimental": "The NAD(P)H autofluorescence multiphoton time courses described above were de-noised by Wiener filtering, cropped based on the Cellpose ROIs resulting in 256 × 256 pixels images of single cells, and surrounding structures were masked in Image Analyst MKII. Then, to compensate for the motility of mitochondria during the time courses, B-spline-based deformable image registration was performed in Elastix 5.0.1 [49]. Image registration was quality controlled subjectively plus by calculating Pearson’s cross-correlation coefficient between before- and after-rotenone frames, and cells with a value lower than 0.6 were discarded. The pixel-by-pixel ratio of after- over before-treatment frames was calculated, masked by mitochondrial profiles generated by Otsu’s threshold method (with a logical OR of before- and after-frames), and log2 of the ratios was taken for all pixels. Image histograms were saved to Excel and analysed in Mathematica using a maximum log-likelihood method for fitting the binned log2-fold intensity values with normal distribution(s). Mock treatments were fitted well with a single, symmetric distribution. We attribute this change of pixel intensities between the consecutive frames of the time course to motility artefacts and noise. The distribution of log2-fold pixel intensity changes for rotenone-treated cells was wider, and therefore we coarsely modelled it as sum of two normal distributions (rotenone-responsive and unresponsive mitochondria, with σ matching that of the mock-treatment modelling motility and noise effects). […] This analysis was repeated for individual single cells (total 185 in three experiments)."}, "[4]": {"tested_on": "isolated rat skeletal muscle mitochondria", "type": "biochemical", "protocol": "Mitochondria were immobilised in coverglass-bottomed 96-well microplates (Greiner Sensoplate) by centrifugation for 15 min at 1000 g in KHEB medium at 4°C. The microplate was warmed in the 37°C heated environment chamber of a Nikon Eclipse Ti-PFS fully motorised wide-field fluorescence microscope equipped with a Lambda 821 LED light source with Lambda 10-3 emission filter wheel and Andor iXon Life 888 EMCCD camera, controlled by NIS Elements 5.20. TMRM (100 nM) was added to the wells, and in successive additions substrates were added without changing the TMRM concentration. TMRM was imaged using a Super Fluor 40× NA1.3 oil lens, a 586/20 nm excitation filter on a 560 nm LED, a 593 nm dichroic mirror, and a 641/75 nm emission filter capturing the centre 512 × 512 pixels area of the camera with no binning and with 1.5× optical zoom (0.17 µm/pixel resolution). Multiple (typically 25) view fields were recorded in one to three wells for 3 time points per substrate condition. In some experiments, TMRM imaging was followed by recording frames of NAD(P)H autofluorescence in the same view fields using a 340 nm LED, 414 nm dichroic mirror and 460/80 nm emission filter. The first autofluorescence frame matched the substrate condition of the last TMRM frame and then the recording of three more frames followed the application of rotenone (4 µM) or FCCP (4 µM) by 1 min delay. Recordings were analysed in Image Analyst MKII 4.2.1 (Image Analyst Software, Novato, CA) by performing image registration, background subtraction and ROI-based intensity measurement. Background was subtracted first as a blank image and then frame-by-frame using the ‘Mean of pixels below percentile of max projection (dilated mask)' method. Single-mitochondria ROIs were generated by morphological segmentation using a modification of the ‘Mitochondria : cell volume fractionator (basic)' standard pipeline. ΔψM was calculated using the Nernst equation. Because fluorescence was small in the absence of substrates, polarisation by G + M was calculated from TMRM fluorescence intensities (FTMRM) by comparison to succinate as 61 mV × log(FTMRM_G + M/FTMRM_succinate), which expresses how much less polarisation was provided by G + M than succinate, in millivolts. Polarisation by G3P was calculated by comparison to G + M as 61 mV × log(FTMRM_G3P/FTMRM_G + M), which expresses the millivolts hyperpolarisation when G3P is added in the presence of G + M. Changes in NAD(P)H autofluorescence (ΔNADH) were expressed as the observed fluorescence intensity change normalised to the population mean fluorescence before rotenone (or FCCP) addition. […] This was then converted to log2-fold changes to provide symmetrical distributions. Scatter plots were generated and analysed in Mathematica 13 (Wolfram Research)."}, "[5]": {"tested_on": "rat skeletal muscle mitochondria", "assay": "Respiration of isolated mitochondria on glycerol 3-phosphate (Seahorse extracellular flux analyzer)", "type": "biochemical", "conditions": "1–10 µM; in the presence of ADP; n = 2–3", "experimental": "Mitochondrial respiration was assayed at 37°C using an Agilent Seahorse XFe-24 as described previously, using 12.5 mM G3P as substrate."}, "[6]": {"conditions": "plate-reader titrations, IQf versus IQr, 2 µM atpenin A5, 10 µM S3QEL3"}, "[7]": {"conditions": "rotenone 4 µM challenge, 50 µM G + M plus 12.5 mM G3P"}},
  "note": "Where two headings read alike, the source gives them in different places.",
  "data": [
    {"smiles": "C/C=C(\\C)[C@H](O)[C@H](C)/C=C(C)/C=C/C/C(C)=C/Cc1nc(OC)c(OC)c(O)c1C", "note": "[piericidin A]", "values": [
      {"measurement": "Superoxide/hydrogen peroxide production by site IQf at highest concentration", "setting": "[1]; 10 µM, plate-reader", "value": "IQf activity reappeared"},
      {"measurement": "Sensitivity of superoxide/hydrogen peroxide production from site IQf compared with site IQr", "setting": "[1]; [6]", "value": "equally sensitive"}
    ]},
    {"smiles": "C=C(C)[C@H]1Cc2c(ccc3c2O[C@@H]2COc4cc(OC)c(OC)cc4[C@@H]2C3=O)O1", "note": "[rotenone]", "values": [
      {"measurement": "Sensitivity of superoxide/hydrogen peroxide production from site IQf compared with site IQr", "setting": "[1]; [6]", "value": "equally sensitive"},
      {"measurement": "Cells responding with an increase in NAD(P)H autofluorescence", "setting": "[2]; rotenone challenge (4 µM in legend, 2 µM in methods), n = 4", "value": "97 ± 4", "unit": "%"},
      {"measurement": "Cellular mitochondria oxidising on challenge (excess pixel count)", "setting": "[3]; n = 3", "value": "0.5 ± 0.1", "unit": "%"},
      {"measurement": "Mitochondria in cells estimated to respond poorly or not at all", "setting": "[3]; n = 3 experiments, 185 cells", "value": "26 ± 3", "unit": "%"},
      {"measurement": "Mitochondria in cells that responded with increased fluorescence", "setting": "[3]; n = 3 experiments, 185 cells", "value": "74 ± 3", "unit": "%"},
      {"measurement": "Mean increase in NAD(P)H fluorescence intensity of responding mitochondria", "setting": "[3]; responder population", "value": "50 ± 10", "unit": "%"},
      {"measurement": "Mitochondria responding by significantly increasing the reduction of their NADH/NAD+ pool", "setting": "[4]; [7]", "value": 65, "unit": "%"},
      {"measurement": "Mitochondria that did not change NAD(P)H fluorescence significantly", "setting": "[4]; [7]", "value": "30 ± 9", "unit": "%"},
      {"measurement": "Mitochondria responding by significant oxidation of NADH to NAD+", "setting": "[4]; rotenone 4 µM challenge, 50 µM G + M plus 12.5 mM G3P, n = 4", "value": "4.2 ± 1.1", "unit": "%"}
    ]},
    {"smiles": "COc1[nH]c(=O)c(C(=O)[C@@H](C)C[C@H](C)[C@@H](Cl)CCl)c(O)c1OC", "note": "[atpenin A5]", "values": [
      {"measurement": "Effect on respiration on 12.5 mM G3P", "setting": "[5]", "value": "no significant effect"}
    ]},
    {"smiles": "N#CC(C#N)=NNc1ccc(OC(F)(F)F)cc1", "note": "[FCCP]", "values": [
      {"measurement": "Sensitivity of superoxide/hydrogen peroxide production from site IQf compared with site IQr", "setting": "[1]", "value": "equally sensitive"},
      {"measurement": "Cells responding with a decrease in NAD(P)H autofluorescence", "setting": "[2]; FCCP 4 µM", "value": "All cells"},
      {"measurement": "Mitochondria responding with significant oxidation of NADH", "setting": "[4]", "value": "85 ± 2", "unit": "%"}
    ]},
    {"smiles": "CO[C@@H]1C[C@@H](C[C@H]2CC[C@H](C)[C@H]([C@@H](C)C(=O)O)O2)O[C@]2(O[C@](C)([C@H]3CC[C@@](C)([C@@H]4O[C@@H]([C@H]5O[C@@](O)(CO)[C@H](C)C[C@@H]5C)C[C@@H]4C)O3)C[C@H]2C)[C@@H]1C", "note": "[nigericin]", "values": [
      {"measurement": "Sensitivity of superoxide/hydrogen peroxide production from site IQf compared with site IQr", "setting": "[1]; [6]", "value": "equally sensitive"}
    ]}
  ]
}
